What was measured:
Details in all cases: 72 h
[1] = test system: myeloid leukemia patient primary cells Pat.14; test: cell viability (% survival relative to DMSO control); higher = less cytotoxic
Procedure, shortened: (§1)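 Where an area under the curve appears, it was computed with the drc and PharmacoGx R packages from log-logistic fits. Those fits used four parameters. The underlying viability data came from CellTiter-Glo after 72 h, normalised to DMSO and 10 μM proteasome-inhibitor wells, with thawed, Ficoll-purified AML or CML patient mononuclear cells at 10,000 cells/well in RPMI 1640 with 10% FBS on 384-well plates pre-printed with 70 compounds at five tenfold concentrations (1–10,000 nM) in duplicate.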

[2] = test system: myeloid leukemia patient primary cells Pat.5; test: as above
Procedure, shortened: as §1

[3] = test system: myeloid leukemia patient primary cells Pat.7; test: as above
Procedure, shortened: as §1

[4] = test system: myeloid leukemia patient primary cells Pat.1; test: as above
Procedure, shortened: as §1

[5] = test system: myeloid leukemia patient primary cells Pat.13; test: as above
Procedure, shortened: as §1

[6] = test system: myeloid leukemia patient primary cells Pat.2; test: as above
Procedure, shortened: as §1

[7] = test system: Mono-Mac-6; test: cell viability (% survival relative to DMSO control, bortezomib = 0%); higher = less cytotoxic
Procedure, shortened: (§2)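 Percent survival is reported as the mean of duplicate wells. Cells from 10 AML and 5 CML lines were plated in 384-well plates containing compounds at 1, 10, 100, 1000 or 10000 nM and kept for 72 h at 37 °C in 5% CO2. Readout used CellTiter-Glo luminescence, scaled so that vehicle equals 100% and a 10 µM positive control equals 0%.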

[8] = test system: KU-812; test: as above
Procedure, shortened: as §2

[9] = test system: NOMO-1; test: as above
Procedure, shortened: as §2

[10] = test system: THP-1; test: as above
Procedure, shortened: as §2

CN(C)CCNC(=O)c1cccn2c(=O)c3cc4ccccc4cc3nc12 [Bmh-21]
cell viability ([1]; 100 nM): 90.6% | cell viability ([1]; 1000 nM): 42.8% | cell viability ([1]; 10000 nM): 3.08% | cell viability ([2]; 1 nM): 35.6% | cell viability ([2]; 10 nM): 94.1% | cell viability ([2]; 100 nM): 79.9% | cell viability ([2]; 1000 nM): 1.33% | cell viability ([2]; 10000 nM): 0.265% | cell viability ([3]; 1 nM): 59.2% | cell viability ([3]; 10 nM): 82.6% | cell viability ([3]; 100 nM): 92.7% | cell viability ([3]; 1000 nM): 14.1% | cell viability ([3]; 10000 nM): 4.95% | cell viability ([4]; 1 nM): 85.9% | cell viability ([4]; 10 nM): 91.9% | cell viability ([4]; 100 nM): 91.5% | cell viability ([4]; 1000 nM): 3.71% | cell viability ([4]; 10000 nM): 0.712% | cell viability ([5]; 1 nM): 87.4% | cell viability ([5]; 10 nM): 96.6% | cell viability ([5]; 100 nM): 84.1% | cell viability ([5]; 1000 nM): 19.7% | cell viability ([5]; 10000 nM): 1.27% | cell viability ([6]; 1 nM): 96.5% | cell viability ([6]; 10 nM): 98.5% | cell viability ([6]; 100 nM): 97.8% | cell viability ([6]; 1000 nM): 91.6% | cell viability ([6]; 10000 nM): 33.1% | cell viability ([7]; 1 nM): 89.8% | cell viability ([7]; 10 nM): 101% | cell viability ([7]; 100 nM): 106% | cell viability ([7]; 1000 nM): 0.313% | cell viability ([7]; 10000 nM): 0.0551% | cell viability ([8]; 1 nM): 98.1% | cell viability ([8]; 10 nM): 105% | cell viability ([8]; 100 nM): 108% | cell viability ([8]; 1000 nM): 15.5% | cell viability ([8]; 10000 nM): -0.163% | cell viability ([9]; 1 nM): 106% | cell viability ([9]; 10 nM): 101% | cell viability ([9]; 100 nM): 101% | cell viability ([9]; 1000 nM): 45.9% | cell viability ([9]; 10000 nM): -0.0945% | cell viability ([10]; 1 nM): 102% | cell viability ([10]; 10 nM): 96.4% | cell viability ([10]; 100 nM): 104% | cell viability ([10]; 1000 nM): 45.1% | cell viability ([10]; 10000 nM): -0.241%

— the supplement of paper PMC8671470
